From publication PMC4015918, “Conjugation to a SMAC mimetic potentiates sigma-2 ligand induced tumor cell death in ovarian cancer” (Molecular Cancer, 2014)
“Also recorded” adds a separate entry of the source.

Legend:
[1] = test system: mouse 66 (mammary carcinoma) or MDA-MB-435 cells (human melanoma); parameters: method as in PMID 22201533; conditions: nude mice bearing mouse 66 or MDA-MB-435 tumors; cited from earlier work
[2] = test system: SKOV3 cells; test: Blocking study: competition with uptake of fluorescent sigma-2 ligand SW120, flow cytometry; assay type: cell-based; conditions: SKOV3 cells pretreated 30 min with increasing concentrations, then 10 nM SW120 for 30 min
Procedure: Figure 1 Compound structures and cell binding characteristics of SW IV-134. (A) The chemical structures of sigma-2 ligand SW43, the SMAC peptidomimetic SW IV-52, and the chemical conjugate SW IV-134. Note that the chirality of SW IV-52 is fully retained in the drug conjugate (asterisks). […] SKOV3 cells were pretreated with increasing concentration of SW IV-134, followed by incubation with SW120, prior to analysis by flow cytometry.
SKOV3 cells (3 × 10^4/well) were seeded into 6 cm plates for 24 hours before treatment. The cells were incubated with 5, 10, 50, and 100 μM doses of SW IV-134 for 30 minutes at 37°C. After this step, 10 nM SW120 was added to the cell culture medium containing SW IV-134. After 30 minute incubation at 37°C, cells were washed twice with phosphate buffered saline (PBS) and harvested with 0.05% trypsin EDTA (Life Technologies, Grand Island, NY). The cells were centrifuged at 1000 × g for 5 minutes and pellets washed twice with PBS. Internalization of SW120 was determined by flow cytometer (FACSCalibur, BD Biosciences, San Jose, CA).
Supplementary file 1476-4598-13-50-S2.pdf: Additional file 2: Figure S1 Receptor binding characteristics of the individual components of SW IV-134. SKOV3 cells were pretreated with increasing concentration of (A) SW43 and (B) SW IV-52, followed by incubation with SW120, prior to analysis by flow cytometry. […] Click here for file

[3] = test system: ovarian cancer cell lines (SKOV3, OVCAR3, HEY A8, HEY A8 MDR); test: Cell viability (CellTiter-Glo) in a panel of four ovarian cancer cell lines; assay type: cell-based; conditions: increasing doses, 18 hours
Procedure: (A) SKOV3, (B) OVCAR3 (C) HEY A8 and (D) HEY A8 MDR cells were treated with increasing doses of SW43, SW IV-52, SW43 plus SW IV-52, and SW IV-134 for 18 hours. Cell viability was determined by CellTiter-Glo assays [p < 0.015 (A), NS (B), p < 0.017 (C), p < 0.034 (D), one-way ANOVA].
Cells (1 × 10^4) were seeded into 96 well plates. Treatment as described in the figure legends was initiated the following day. Cell viability was determined 18 hours after treatment using CellTiter-Glo Luminiscent Viability Assay (Promega, Madison, WI). Data were recorded with a SpectraMax Gemini microplate spectrofluorometer, Molecular Devices (Silicon Valley, CA).

| Structure (SMILES) | Tumor-selective uptake of SW120 in vivo [1] | Blocking of SW120 uptake [2] | Killing activity (cell viability) [3] |
| --- | --- | --- | --- |
| COc1ccc(C)cc1NC(=O)OC1CC2CCCC(C1)N2CCCCCCCCCCNc1ccc([N+](=O)[O-])c2nonc12 (stereo not drawn) [SW120] | taken up selectively by proliferating tumor cells and not by the generally quiescent peripheral blood mononuclear cells | – | – |
| CN[C@@H](C)C(=O)N[C@H](C(=O)N1CCC[C@H]1C(=O)N[C@@H]1CCCc2ccccc21)C(C)(C)C [SW IV-52] | – | nearly incapable of blocking the uptake of SW120; also recorded: nearly incapable of interfering with the uptake of SW120 | minimal single-agent activity at concentrations up to 200 μM |
